Data as given in paper PMC11672637, “7-O-Carboxylic Acid-Substituted 3-O-Alkyl Difluoroquercetin; An Aztreonam-Potentiating Agent Against Carbapenemase-Producing Pseudomonas aeruginosa Through Simultaneous Inhibition of Metallo-β-Lactamase and Efflux Pump” (Antibiotics, 2024).
Like-named read-outs stand apart in the source and are kept apart here.

What was measured:
Assay in all cases: MIC / checkerboard with ATM
Format in all cases: cell-based, P. aeruginosa
PA-038, blaNDM = details: for MIC: Pseudomonas aeruginosa, read-out: MIC of ATM with 5, PA-038
PA-016, blaIMP = details: for MIC: Pseudomonas aeruginosa, read-out: MIC of ATM with 5, PA-016
PA-029, blaIMP = details: for MIC: Pseudomonas aeruginosa, read-out: MIC of ATM with 5, PA-029
PA-002, blaIMP = details: for MIC: Pseudomonas aeruginosa, read-out: MIC of ATM with 5, PA-002
PA-009, blaGES = details: for MIC: Pseudomonas aeruginosa, read-out: MIC of ATM with 5, PA-009
PA-034, blaNDM = details: for MIC: Pseudomonas aeruginosa, read-out: MIC of ATM with 5, PA-034
PA-025, blaNDM = details: for MIC: Pseudomonas aeruginosa, read-out: MIC of ATM with 5, PA-025

CC(C)(C)CCOc1c(-c2ccc(F)c(F)c2)oc2cc(OCC(=O)O)cc(O)c2c1=O [Compound 5, 2-((2-(3,4-Difluorophenyl)-3-(3,3-dimethylbutoxy)-5-hydroxy-4-oxo-4H-chromen-7-yl)oxy)acetic Acid]
8/16: Concentrations of ATM and 5 at lowest FICI (ATM/5) (PA-029, blaIMP; PA-029)
4 µg/mL: MIC (PA-038, blaNDM; 5 at 8 mg/L) | MIC (PA-038, blaNDM; 5 at 16 mg/L) | MIC (PA-038, blaNDM; 5 at 32 mg/L) | MIC (PA-038, blaNDM; 5 at 64 mg/L) | MIC (PA-016, blaIMP; 5 at 32 mg/L) | MIC (PA-016, blaIMP; 5 at 64 mg/L) | MIC (PA-002, blaIMP; 5 at 16 mg/L) | MIC (PA-002, blaIMP; 5 at 32 mg/L) | MIC (PA-009, blaGES; 5 at 32 mg/L) | MIC (PA-009, blaGES; 5 at 64 mg/L) | MIC (PA-034, blaNDM; 5 at 8 mg/L) | MIC (PA-034, blaNDM; 5 at 16 mg/L) | MIC (PA-034, blaNDM; 5 at 32 mg/L) | MIC (PA-034, blaNDM; 5 at 64 mg/L) | MIC (PA-025, blaNDM; 5 at 16 mg/L)
4/16: Concentrations of ATM and 5 at lowest FICI (ATM/5) (PA-025, blaNDM; PA-025)
4: FD (fold decrease in MIC of ATM with 5) (PA-038, blaNDM; PA-038, lowest-FICI combination) | FD (fold decrease in MIC of ATM with 5) (PA-016, blaIMP; PA-016, lowest-FICI combination) | FD (fold decrease in MIC of ATM with 5) (PA-029, blaIMP; PA-029, lowest-FICI combination) | FD (fold decrease in MIC of ATM with 5) (PA-002, blaIMP; PA-002, lowest-FICI combination) | FD (fold decrease in MIC of ATM with 5) (PA-009, blaGES; PA-009, lowest-FICI combination) | FD (fold decrease in MIC of ATM with 5) (PA-034, blaNDM; PA-034, lowest-FICI combination) | FD (fold decrease in MIC of ATM with 5) (PA-025, blaNDM; PA-025, lowest-FICI combination)
8/8: Concentrations of ATM and 5 at lowest FICI (ATM/5) (PA-016, blaIMP; PA-016) | Concentrations of ATM and 5 at lowest FICI (ATM/5) (PA-009, blaGES; PA-009)
8/4: Concentrations of ATM and 5 at lowest FICI (ATM/5) (PA-002, blaIMP; PA-002)
0.28: Lowest FICI (ATM/5) (PA-029, blaIMP; PA-029) | Lowest FICI (ATM/5) (PA-009, blaGES; PA-009) | Lowest FICI (ATM/5) (PA-025, blaNDM; PA-025)
S (S (Synergy, FICI ≤ 0.5)): Activity (FICI class) (PA-016, blaIMP; PA-016) | Activity (FICI class) (PA-029, blaIMP; PA-029) | Activity (FICI class) (PA-002, blaIMP; PA-002) | Activity (FICI class) (PA-009, blaGES; PA-009) | Activity (FICI class) (PA-034, blaNDM; PA-034) | Activity (FICI class) (PA-025, blaNDM; PA-025)
8 mg/L: Minimum concentration of 5 to make sensitive to ATM (PA-016, blaIMP; PA-016) | Minimum concentration of 5 to make sensitive to ATM (PA-009, blaGES; PA-009)
S (S (sensitive, MIC ≤ 8 mg/L)): Susceptibility to ATM (PA-038, blaNDM; PA-038, ATM/5) | Susceptibility to ATM (PA-016, blaIMP; PA-016, ATM/5) | Susceptibility to ATM (PA-029, blaIMP; PA-029, ATM/5) | Susceptibility to ATM (PA-002, blaIMP; PA-002, ATM/5) | Susceptibility to ATM (PA-009, blaGES; PA-009, ATM/5) | Susceptibility to ATM (PA-034, blaNDM; PA-034, ATM/5) | Susceptibility to ATM (PA-025, blaNDM; PA-025, ATM/5)
0.26: Lowest FICI (ATM/5) (PA-002, blaIMP; PA-002)
2 µg/mL: MIC (PA-002, blaIMP; 5 at 64 mg/L) | MIC (PA-025, blaNDM; 5 at 32 mg/L) | MIC (PA-025, blaNDM; 5 at 64 mg/L)
16 µg/mL: MIC (PA-038, blaNDM; 5 at 1 mg/L) | MIC (PA-038, blaNDM; 5 at 2 mg/L) | MIC (PA-016, blaIMP; 5 at 2 mg/L) | MIC (PA-016, blaIMP; 5 at 4 mg/L) | MIC (PA-029, blaIMP; 5 at 4 mg/L) | MIC (PA-029, blaIMP; 5 at 8 mg/L) | MIC (PA-002, blaIMP; 5 at 1 mg/L) | MIC (PA-002, blaIMP; 5 at 2 mg/L) | MIC (PA-009, blaGES; 5 at 2 mg/L) | MIC (PA-009, blaGES; 5 at 4 mg/L) | MIC (PA-034, blaNDM; 5 at 1 mg/L) | MIC (PA-034, blaNDM; 5 at 2 mg/L) | MIC (PA-025, blaNDM; 5 at 1 mg/L) | MIC (PA-025, blaNDM; 5 at 2 mg/L)
8 µg/mL: MIC (PA-038, blaNDM; 5 at 4 mg/L) | MIC (PA-016, blaIMP; 5 at 8 mg/L) | MIC (PA-016, blaIMP; 5 at 16 mg/L) | MIC (PA-029, blaIMP; 5 at 16 mg/L) | MIC (PA-029, blaIMP; 5 at 32 mg/L) | MIC (PA-029, blaIMP; 5 at 64 mg/L) | MIC (PA-002, blaIMP; 5 at 4 mg/L) | MIC (PA-002, blaIMP; 5 at 8 mg/L) | MIC (PA-009, blaGES; 5 at 8 mg/L) | MIC (PA-009, blaGES; 5 at 16 mg/L) | MIC (PA-034, blaNDM; 5 at 4 mg/L) | MIC (PA-025, blaNDM; 5 at 4 mg/L) | MIC (PA-025, blaNDM; 5 at 8 mg/L)
4 mg/L: Minimum concentration of 5 to make sensitive to ATM (PA-038, blaNDM; PA-038) | Minimum concentration of 5 to make sensitive to ATM (PA-002, blaIMP; PA-002) | Minimum concentration of 5 to make sensitive to ATM (PA-034, blaNDM; PA-034) | Minimum concentration of 5 to make sensitive to ATM (PA-025, blaNDM; PA-025)
16 mg/L: Minimum concentration of 5 to make sensitive to ATM (PA-029, blaIMP; PA-029)
32 µg/mL: MIC (PA-016, blaIMP; 5 at 1 mg/L) | MIC (PA-029, blaIMP; 5 at 1 mg/L) | MIC (PA-029, blaIMP; 5 at 2 mg/L) | MIC (PA-009, blaGES; 5 at 1 mg/L)
0.27: Lowest FICI (ATM/5) (PA-038, blaNDM; PA-038) | Lowest FICI (ATM/5) (PA-016, blaIMP; PA-016) | Lowest FICI (ATM/5) (PA-034, blaNDM; PA-034)
4/8: Concentrations of ATM and 5 at lowest FICI (ATM/5) (PA-034, blaNDM; PA-034)
